Target: T1, HMG-CoA reductase (Rattus norvegicus, UniProt P51639)
T1 sequence (P51639 1-887): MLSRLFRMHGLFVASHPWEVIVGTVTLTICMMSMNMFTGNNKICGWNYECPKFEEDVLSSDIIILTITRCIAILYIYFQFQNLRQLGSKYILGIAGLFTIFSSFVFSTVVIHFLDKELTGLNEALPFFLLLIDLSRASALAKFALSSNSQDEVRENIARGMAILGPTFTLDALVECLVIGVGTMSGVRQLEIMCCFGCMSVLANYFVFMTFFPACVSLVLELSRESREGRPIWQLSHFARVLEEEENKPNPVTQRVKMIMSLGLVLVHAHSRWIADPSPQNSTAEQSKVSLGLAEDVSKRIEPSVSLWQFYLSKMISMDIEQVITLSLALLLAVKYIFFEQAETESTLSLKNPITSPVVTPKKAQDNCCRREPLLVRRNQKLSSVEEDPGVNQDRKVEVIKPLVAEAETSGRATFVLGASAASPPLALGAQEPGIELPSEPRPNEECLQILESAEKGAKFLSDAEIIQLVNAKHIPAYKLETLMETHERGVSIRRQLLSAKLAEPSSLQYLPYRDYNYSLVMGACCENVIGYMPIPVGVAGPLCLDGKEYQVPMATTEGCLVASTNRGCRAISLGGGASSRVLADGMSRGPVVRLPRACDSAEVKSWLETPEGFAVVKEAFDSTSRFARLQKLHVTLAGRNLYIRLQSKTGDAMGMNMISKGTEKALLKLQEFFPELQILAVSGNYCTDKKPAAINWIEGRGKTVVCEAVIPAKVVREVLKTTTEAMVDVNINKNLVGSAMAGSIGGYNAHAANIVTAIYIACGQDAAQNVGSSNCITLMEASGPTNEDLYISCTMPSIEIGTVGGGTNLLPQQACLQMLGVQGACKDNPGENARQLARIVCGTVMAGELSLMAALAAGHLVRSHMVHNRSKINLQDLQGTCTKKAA
Test: intrinsic HMG-CoA reductase inhibition, in vitro protocol of J. Med. Chem., 1985, 28, page 347
Format: biochemical
Conditions: in vitro protocol described in J. Med. Chem., 1985, 28, page 347
Protocol: The intrinsic HMG-CoA reductase inhibition activity of the claimed compounds is measured in the in vitro protocol described is J. Med. Chem., 1985, 28, page 347.

IC50: 547 nM
SMILES: CC[C@H](C)C(=O)O[C@H]1C[C@@H](C)CC2=CC(O)[C@H](C)C(CC[C@@H](O)C[C@@H](O)CC(=O)O)=C21 (stereo partly shown)

Reference: patent publication US4738982A, “HMG-CoA reductase inhibitors” (Merck & Co., Inc., priority 1986, dated 1988)
